Experimental data as given in PMC3691235, “Discovery of a Novel Dual Fungal CYP51/Human 5-Lipoxygenase Inhibitor: Implications for Anti-Fungal Therapy” (PLoS ONE, 2013).

Tests used:
[1] = target: T1, Human leukocyte 5-lipoxygenase (Homo sapiens, UniProt P09917); assay: Lipoxygenase UV-based inhibitor assay, 5-LOX; type: biochemical; details: for IC50: UV-based assay, 10 µM AA, pH 7.3, crude enzyme, error = SD, read-out: 5-LOX IC50
T1 construct: made in house
T1 sequence (P09917 1-674): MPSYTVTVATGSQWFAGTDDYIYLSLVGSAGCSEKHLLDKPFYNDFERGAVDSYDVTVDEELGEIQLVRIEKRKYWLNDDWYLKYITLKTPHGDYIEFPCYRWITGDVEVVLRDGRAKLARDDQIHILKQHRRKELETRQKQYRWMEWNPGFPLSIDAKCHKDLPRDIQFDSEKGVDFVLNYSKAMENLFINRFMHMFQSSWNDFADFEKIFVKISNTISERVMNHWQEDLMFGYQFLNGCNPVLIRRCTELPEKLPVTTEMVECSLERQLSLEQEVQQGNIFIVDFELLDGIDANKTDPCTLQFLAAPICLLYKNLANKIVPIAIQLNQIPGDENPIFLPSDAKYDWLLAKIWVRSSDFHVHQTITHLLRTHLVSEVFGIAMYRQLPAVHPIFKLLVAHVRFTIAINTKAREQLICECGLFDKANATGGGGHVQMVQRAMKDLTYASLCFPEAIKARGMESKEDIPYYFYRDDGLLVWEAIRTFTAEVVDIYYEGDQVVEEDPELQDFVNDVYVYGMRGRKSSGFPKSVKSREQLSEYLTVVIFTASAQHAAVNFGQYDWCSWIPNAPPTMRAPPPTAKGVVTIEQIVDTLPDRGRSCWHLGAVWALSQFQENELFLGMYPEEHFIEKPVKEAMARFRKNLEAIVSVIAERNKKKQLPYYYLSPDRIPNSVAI
Procedure: (§1) Human leukocyte 5-lipoxygenase was expressed as a non-tagged protein and used as a crude ammonium sulfate protein fraction, as published previously.
(§2) Inhibitor potencies were evaluated through use of the standard UV-based inhibitor assay. The initial rates were determined by following the formation of the conjugated diene product at 234 nm (ε = 25,000 M^−1 cm^−1) with a Perkin-Elmer Lambda 40 UV/Vis spectrophotometer at one substrate concentration and varying inhibitor concentrations. All reactions were 2 mL in volume and constantly stirred using a magnetic stir bar at room temperature (23°C), with the enzyme specific buffer conditions outlined in Table 1. The substrate used for the various isozymes was arachidonic acid (AA) for 5-LOX, 12-LOX, and 15-LOX-2 and linoleic acid (LA) for 15-LOX-1, where concentrations were quantitatively determined by allowing the enzymatic reaction to go to completion. IC50 values were obtained by determining the initial rate at various inhibitor concentrations and plotting them against inhibitor concentration, followed by a hyperbolic saturation curve fit. The data used for the saturation curves were performed in duplicate or triplicate, depending on the quality of the data. […] Inhibitors were stored at −20°C in DMSO. […] The solvent isotope effect of the inhibitor IC50 was investigated utilizing the same conditions and methods as stated above. The pH of the buffered D2O was determined as reported previously.

[2] = target: T2, 5-LOX (Homo sapiens, UniProt P09917); assay: Pseudoperoxidase activity assay; type: biochemical; details: 10 µM inhibitor, 10 µM 13-HPODE, positive = loss of greater than 40% of product absorption at 234 nm
T2 construct: made in house
T2 sequence (P09917 1-674): T1 sequence (P09917 1-674)
Procedure: The reductive properties of the inhibitors were determined by monitoring the pseudoperoxidase activity of lipoxygenase in the presence of the inhibitor and 13-(S)-hydroperoxyoctadecadienoic acid (13-HPODE). Activity is monitored by direct measurement of the product degradation following the decrease of absorbance at 234 nm using a Perkin-Elmer Lambda 40 UV/Vis spectrometer (50 mM Sodium Phosphate (pH 7.4), 0.3 mM CaCl2, 0.1 mM EDTA, 0.01% Triton X100, 10 µM 13-HPODE). All reactions were performed in 2 mL of buffer and constantly stirred with a rotating stir bar (23°C). Reaction was initiated by addition of 10 µM inhibitor (a 1 to 1 ratio to 13-HPODE), and a positive result for activity reflected a loss of greater than 40% of product absorption at 234 nm.

[3] = target: T3, human platelet 12-lipoxygenase (12-LOX) (Homo sapiens, UniProt P18054); assay: Lipoxygenase UV-based inhibitor assay, 12-LOX; type: biochemical; details: 10 µM AA, pH 8.0
T3 construct: His6 (N); made in house
T3 sequence (P18054 1-663): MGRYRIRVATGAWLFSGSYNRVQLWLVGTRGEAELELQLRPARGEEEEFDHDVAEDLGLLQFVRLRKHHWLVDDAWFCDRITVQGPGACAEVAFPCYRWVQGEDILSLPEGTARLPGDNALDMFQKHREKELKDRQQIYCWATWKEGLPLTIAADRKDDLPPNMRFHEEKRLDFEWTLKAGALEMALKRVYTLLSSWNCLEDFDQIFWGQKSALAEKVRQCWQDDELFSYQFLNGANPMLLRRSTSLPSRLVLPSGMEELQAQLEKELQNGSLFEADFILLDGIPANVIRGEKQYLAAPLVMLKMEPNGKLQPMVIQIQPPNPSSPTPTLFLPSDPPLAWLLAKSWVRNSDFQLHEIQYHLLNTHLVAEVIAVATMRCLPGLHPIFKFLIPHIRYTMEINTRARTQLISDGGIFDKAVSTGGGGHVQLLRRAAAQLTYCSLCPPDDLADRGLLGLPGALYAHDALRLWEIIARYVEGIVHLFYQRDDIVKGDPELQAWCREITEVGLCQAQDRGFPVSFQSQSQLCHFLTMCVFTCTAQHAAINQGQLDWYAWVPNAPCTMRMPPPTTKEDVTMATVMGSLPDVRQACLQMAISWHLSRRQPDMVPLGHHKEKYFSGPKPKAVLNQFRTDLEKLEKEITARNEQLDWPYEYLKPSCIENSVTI
Procedure: as §1, §2

[4] = system: LTB4 synthesis in whole human blood; assay: Human blood LTB4 inhibition assay; type: cell-based; details: Homo sapiens, compounds at 10 µM, calcium ionophore stimulated, ELISA; error in parentheses
Procedure: Whole human blood was obtained from healthy volunteers from within the Student Health Center. These studies were approved by the UCSC Institutional Review Board (IRB) and informed consent was obtained from all donors before blood draw. The whole blood was dispensed in 150 µL samples followed by addition of inhibitor or control (vehicle, DMSO), and incubated for 15 min at 37°C. The mixture was then stimulated by introduction of the calcium ionophore, […], (freshly diluted from a 50 mM DMSO stock to 1.5 mM in Hanks balanced salt solution), and incubated for 30 min at 37°C. Samples were then centrifuged at 1,500 rpm (300 g) for 10 min at 4°C and the supernatant diluted between 20 and 50-fold (batch dependent) for LTB4 detection, using an ELISA detection kit (Cayman Chemicals Inc.).

[5] = target: T4, human prostate epithelial 15-lipoxygenase-2 (15-LOX-2) (Homo sapiens, UniProt O15296); assay: Lipoxygenase UV-based inhibitor assay, 15-LOX-2; type: biochemical; details: 30 µM AA, pH 7.5
T4 construct: His6 (N); made in house
T4 sequence (O15296 1-676): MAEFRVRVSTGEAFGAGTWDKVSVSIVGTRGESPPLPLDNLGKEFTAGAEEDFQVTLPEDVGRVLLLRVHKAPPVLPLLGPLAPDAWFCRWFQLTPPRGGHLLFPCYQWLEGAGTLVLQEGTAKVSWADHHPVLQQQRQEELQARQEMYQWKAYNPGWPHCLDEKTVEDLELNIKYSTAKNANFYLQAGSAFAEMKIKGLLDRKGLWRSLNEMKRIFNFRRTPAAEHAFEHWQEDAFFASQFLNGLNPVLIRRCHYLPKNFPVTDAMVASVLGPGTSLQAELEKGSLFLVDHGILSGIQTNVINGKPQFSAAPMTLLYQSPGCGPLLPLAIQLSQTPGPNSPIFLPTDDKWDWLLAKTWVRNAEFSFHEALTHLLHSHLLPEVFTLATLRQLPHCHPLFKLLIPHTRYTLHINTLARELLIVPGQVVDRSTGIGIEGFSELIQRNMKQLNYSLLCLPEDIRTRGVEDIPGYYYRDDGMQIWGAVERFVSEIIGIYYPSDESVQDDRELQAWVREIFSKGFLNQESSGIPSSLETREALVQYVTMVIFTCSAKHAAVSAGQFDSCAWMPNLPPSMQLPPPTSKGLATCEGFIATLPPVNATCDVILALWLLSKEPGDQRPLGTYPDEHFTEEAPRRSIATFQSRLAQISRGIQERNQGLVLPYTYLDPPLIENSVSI
Procedure: as §1, §2

[6] = target: T5, Human reticulocyte 15-lipoxygenase-1 (15-LOX-1) (Homo sapiens, UniProt P16050); assay: Lipoxygenase UV-based inhibitor assay, 15-LOX-1; type: biochemical; details: 10 µM LA, pH 7.5
T5 construct: His6 (N); made in house
T5 sequence (P16050 1-662): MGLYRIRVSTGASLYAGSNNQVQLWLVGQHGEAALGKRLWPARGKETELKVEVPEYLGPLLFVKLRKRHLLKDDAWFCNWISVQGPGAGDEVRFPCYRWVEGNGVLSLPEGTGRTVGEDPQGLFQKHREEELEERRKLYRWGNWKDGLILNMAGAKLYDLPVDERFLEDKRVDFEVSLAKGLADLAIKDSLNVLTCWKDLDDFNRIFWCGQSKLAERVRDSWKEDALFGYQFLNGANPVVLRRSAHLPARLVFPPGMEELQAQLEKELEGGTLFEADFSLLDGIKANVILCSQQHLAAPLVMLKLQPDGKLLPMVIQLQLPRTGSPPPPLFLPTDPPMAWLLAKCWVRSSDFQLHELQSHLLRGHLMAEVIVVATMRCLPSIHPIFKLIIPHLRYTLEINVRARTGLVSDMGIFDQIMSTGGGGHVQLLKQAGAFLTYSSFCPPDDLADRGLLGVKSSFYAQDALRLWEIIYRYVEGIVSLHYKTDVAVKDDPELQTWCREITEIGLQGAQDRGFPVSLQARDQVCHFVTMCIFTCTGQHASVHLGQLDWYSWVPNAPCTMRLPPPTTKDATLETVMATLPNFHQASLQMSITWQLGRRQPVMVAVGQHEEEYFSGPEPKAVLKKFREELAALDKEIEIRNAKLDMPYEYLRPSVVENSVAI
Procedure: as §1, §2

[7] = target: T6, Homo sapiens CYP51 (HsCYP51) (Homo sapiens, UniProt Q16850); design: method as in PMID 20149798; details: ref [40]; read-out: Kd with HsCYP51, previously reported; cited from earlier work
T6 construct: made in house; host or cells: E. coli
T6 sequence (Q16850 1-509): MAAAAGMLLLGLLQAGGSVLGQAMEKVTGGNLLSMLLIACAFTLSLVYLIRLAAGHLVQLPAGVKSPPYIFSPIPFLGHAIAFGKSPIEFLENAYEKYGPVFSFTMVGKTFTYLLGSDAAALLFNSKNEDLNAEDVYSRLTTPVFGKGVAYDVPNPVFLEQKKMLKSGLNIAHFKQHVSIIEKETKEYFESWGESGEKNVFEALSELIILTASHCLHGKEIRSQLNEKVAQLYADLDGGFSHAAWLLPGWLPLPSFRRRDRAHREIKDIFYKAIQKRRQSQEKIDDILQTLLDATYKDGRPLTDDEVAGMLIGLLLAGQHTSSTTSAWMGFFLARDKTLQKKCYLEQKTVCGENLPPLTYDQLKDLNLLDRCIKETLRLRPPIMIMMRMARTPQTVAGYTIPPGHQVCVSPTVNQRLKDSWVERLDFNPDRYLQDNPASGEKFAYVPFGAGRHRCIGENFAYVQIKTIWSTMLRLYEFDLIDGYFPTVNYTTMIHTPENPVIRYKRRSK

| SMILES | IC50 [1] | Reductive activity (pseudoperoxidase activity) [2] | other results |
| --- | --- | --- | --- |
| CC(C)(C)OC(=O)N1CCC(c2ccc(NCc3ccc(-c4ccc(C#N)cc4)o3)cc2)CC1 [Compound 2] | > 150000 nM | No | 5-LOX inhibition, in words [1]: complete loss of inhibition |
| CC(C)(C)OC(=O)N1CCN(c2ccc(OCc3ccc(-c4ccc(C#N)cc4)o3)cc2)CC1 [Compound 3] | > 150000 nM | No | 5-LOX inhibition, in words [1]: complete loss of inhibition |
| CN(Cc1ccc(-c2ccc(C#N)cc2)o1)c1ccc(N2CCN(C(=O)OC(C)(C)C)CC2)cc1 [Compound 7] | 2700 nM | Yes |  |
| CC(=O)N1CCN(c2ccc(NCc3ccc(C)cc3)cc2)CC1 [Compound 11] | 1100 nM |  |  |
| CC(=O)N1CCN(c2ccc(NCc3ccc(-c4ccc(Br)cc4)o3)cc2)CC1 [Compound 12] | 2600 nM |  |  |
| Cc1ccc(CNc2ccc(N3CCCCC3)cc2)cc1 [Compound 15] | 600 nM |  | IC50 [3]: > 50000 nM; inhibition at 10 µM [4]: < 10%; IC50 [5]: > 50000 nM; IC50 [6]: > 150000 nM |
| Clc1ccccc1C(c1ccccc1)(c1ccccc1)n1ccnc1 [clotrimazole] |  |  | Kd [7]: < 100 nM |
| Clc1ccc(COC(Cn2ccnc2)c2ccc(Cl)cc2Cl)cc1 (stereo not shown) [econazole] |  |  | Kd [7]: < 100 nM |
| CC(c1cc2ccccc2s1)N(O)C(N)=O (stereo not shown) [zileuton, reference compound] |  | reductive | IC50 [3]: > 150000 nM; Reductive activity (pseudoperoxidase activity) ([2]; listed as Zilueton): Yes; IC50 [6]: > 50000 nM |

Second part, led by results:

| IC50 [1] | Reductive activity (pseudoperoxidase activity) [2] | SMILES | other results |
| --- | --- | --- | --- |
| > 150000 nM | No | CC(C)(C)OC(=O)N1CCN(c2ncc(NCc3ccc(-c4ccc(C#N)cc4)o3)cn2)CC1 [Compound 4] | 5-LOX inhibition, in words [1]: complete loss of inhibition |
| > 150000 nM | No | CC(C)(C)OC(=O)N1CCN(c2cnc(NCc3ccc(-c4ccc(C#N)cc4)o3)nc2)CC1 [Compound 5] | 5-LOX inhibition, in words [1]: complete loss of inhibition |
| 100 nM |  | CC(C)(C)OC(=O)N1CCN(c2ccc(NCc3cnc(-c4ccc(C#N)cc4)o3)cc2)CC1 [Compound 8] |  |
| 1500 nM |  | CC(C)(C)OC(=O)N1CCN(c2ccc(NCc3ncc(-c4ccc(C#N)cc4)o3)cc2)CC1 [Compound 9] |  |
| > 150000 nM |  | CC(C)(C)OC(=O)N1CCN(c2ccc(NCc3nnc(-c4ccc(C#N)cc4)o3)cc2)CC1 [Compound 10] | decrease in 5-LOX potency ([1]; relative to the other analogues of Figure 3): greater than 10 fold |
